Laboratory results published in PubChem BioAssay (NCI).
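Following 48 hours of exposure in 96-well plates, responses at five concentrations were used to interpolate endpoints linearly. Here, GI50 denotes the concentration required for 50% inhibition of growth. TGI marks complete inhibition of growth.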

Legend:
Assay in all cases: inhibition of tumour cell growth, NCI panel, 48 h
[1] = test system: 786-0 renal
[2] = test system: A498 renal
[3] = test system: A549 NSCLC
[4] = test system: ACHN renal
[5] = test system: BT-549 breast
[6] = test system: CCRF-CEM leukemia
[7] = test system: COLO 205 colon
[8] = test system: DU-145 prostate
[9] = test system: EKVX NSCLC
[10] = test system: HCC-2998 colon
[11] = test system: HCT-116 colon
[12] = test system: HCT-15 colon
[13] = test system: HL-60(TB) leukemia
[14] = test system: HOP-62 NSCLC
[15] = test system: HOP-92 NSCLC
[16] = test system: HS 578T breast
[17] = test system: HT29 colon
[18] = test system: IGROV1 ovarian
[19] = test system: K-562 leukemia
[20] = test system: KM12 colon
[21] = test system: LOX IMVI melanoma
[22] = test system: M14 melanoma
[23] = test system: MALME-3M melanoma
[24] = test system: MCF7 breast
[25] = test system: MDA-MB-231 breast
[26] = test system: MDA-MB-435
[27] = test system: MOLT-4 leukemia
[28] = test system: NCI-H226 lung
[29] = test system: NCI-H23 lung
[30] = test system: NCI-H460 lung
[31] = test system: NCI-H522 lung
[32] = test system: NCI/ADR-RES ovarian
[33] = test system: OVCAR-3 ovarian
[34] = test system: OVCAR-4 ovarian
[35] = test system: OVCAR-5 ovarian
[36] = test system: OVCAR-8 ovarian
[37] = test system: PC-3 prostate
[38] = test system: RPMI-8226 leukemia
[39] = test system: RXF 393 renal
[40] = test system: SF-268 CNS
[41] = test system: SF-295 CNS
[42] = test system: SF-539 CNS
[43] = test system: SK-MEL-2 melanoma
[44] = test system: SK-MEL-28 melanoma
[45] = test system: SK-MEL-5 melanoma
[46] = test system: SK-OV-3 ovarian
[47] = test system: SN12C renal
[48] = test system: SNB-19 CNS
[49] = test system: SNB-75 CNS
[50] = test system: SR leukemia
[51] = test system: SW-620 colon
[52] = test system: T-47D breast
[53] = test system: U251 CNS
[54] = test system: UACC-257 melanoma
[55] = test system: UACC-62 melanoma
[56] = test system: UO-31 renal

Compound: Clc1ccc(Nc2nnc(CNc3ccccc3)c3ccccc23)cc1
- GI50 [1]: 4.01 µM
- TGI [1]: 12.5 µM
- GI50 [2]: 1.45 µM
- TGI [2]: 6.06 µM
- GI50 [3]: 3.17 µM
- TGI [3]: 20 µM
- GI50 [4]: 3.1 µM
- TGI [4]: > 25 µM
- GI50 [5]: 2.93 µM
- TGI [5]: 8.2 µM
- GI50 [6]: 3.53 µM
- TGI [6]: 17.6 µM
- GI50 [7]: 0.915 µM
- TGI [7]: 5.39 µM
- GI50 [8]: 4.55 µM
- TGI [8]: > 25 µM
- GI50 [9]: 1.61 µM
- TGI [9]: 15 µM
- GI50 [10]: 4.85 µM
- TGI [10]: 15.9 µM
- GI50 [11]: 1.2 µM
- TGI [11]: 5.02 µM
- GI50 [12]: 2.99 µM
- TGI [12]: 9.39 µM
- GI50 [13]: 3.71 µM
- TGI [13]: 13 µM
- GI50 [14]: 2.86 µM
- TGI [14]: 8.84 µM
- GI50 [15]: 0.777 µM
- TGI [15]: 6.3 µM
- GI50 [16]: 2.95 µM
- TGI [16]: 12.9 µM
- GI50 [17]: 1.46 µM
- TGI [17]: 6.36 µM
- GI50 [18]: 1.93 µM
- TGI [18]: 10.7 µM
- GI50 [19]: 1.71 µM
- TGI [19]: 14.5 µM
- GI50 [20]: 3.05 µM
- TGI [20]: 9.92 µM
- GI50 [21]: 1.57 µM
- TGI [21]: 4.97 µM
- GI50 [22]: 1.74 µM
- TGI [22]: 6.65 µM
- GI50 [23]: 2.66 µM
- TGI [23]: 9.92 µM
- GI50 [24]: 2.68 µM
- TGI [24]: 11.1 µM
- GI50 [25]: 1.95 µM
- TGI [25]: 8.73 µM
- GI50 [26]: 1.47 µM
- TGI [26]: 7.88 µM
- GI50 [27]: 1.71 µM
- TGI [27]: 8.74 µM
- GI50 [28]: 2.52 µM
- TGI [28]: 7.98 µM
- GI50 [29]: 2.5 µM
- TGI [29]: 16.4 µM
- GI50 [30]: 3.21 µM
- TGI [30]: 9.97 µM
- GI50 [31]: 0.684 µM
- TGI [31]: 4.62 µM
- GI50 [32]: 4.12 µM
- TGI [32]: 17 µM
- GI50 [33]: 3.51 µM
- TGI [33]: 8.69 µM
- GI50 [34]: 3 µM
- TGI [34]: > 25 µM
- GI50 [35]: 4.92 µM
- TGI [35]: > 25 µM
- GI50 [36]: 4.63 µM
- TGI [36]: 16.8 µM
- GI50 [37]: 1.91 µM
- TGI [37]: 14.4 µM
- GI50 [38]: 2.1 µM
- TGI [38]: 7.71 µM
- GI50 [39]: 2.6 µM
- TGI [39]: 8.12 µM
- GI50 [40]: 3.28 µM
- TGI [40]: 14.5 µM
- GI50 [41]: 2.98 µM
- TGI [41]: 8.77 µM
- GI50 [42]: 3.67 µM
- TGI [42]: 8.09 µM
- GI50 [43]: 2.16 µM
- TGI [43]: 5.83 µM
- GI50 [44]: 3.67 µM
- TGI [44]: 10.5 µM
- GI50 [45]: 2.08 µM
- TGI [45]: 5.27 µM
- GI50 [46]: 3.17 µM
- TGI [46]: 11.4 µM
- GI50 [47]: 3.95 µM
- TGI [47]: 18.9 µM
- GI50 [48]: 4.71 µM
- TGI [48]: 22.7 µM
- GI50 [49]: 0.871 µM
- TGI [49]: 7.05 µM
- GI50 [50]: 1.75 µM
- TGI [50]: 12.3 µM
- GI50 [51]: 3.84 µM
- TGI [51]: 11.1 µM
- GI50 [52]: 1.17 µM
- TGI [52]: 8.28 µM
- GI50 [53]: 3.28 µM
- TGI [53]: 7.33 µM
- GI50 [54]: 2.74 µM
- TGI [54]: 6.87 µM
- GI50 [55]: 1.25 µM
- TGI [55]: 5.7 µM
- GI50 [56]: 1.36 µM
- TGI [56]: 6.66 µM
